Peptide text beside a SMILES is read from it. * marks the point of attachment. Cbz = O=C(OCc1ccccc1)*
Experiments:
Format in all cases: cell-based, mouse
TNF mRNA = experiment: Semiquantitative PCR of LPS-induced TNF mRNA in peritoneal macrophages; settings: preincubated 1 hour with brefeldin A 3 μg/mL
Experimental: (A) Immunoblot of 4-1BBL in lysates from wild-type macrophages and macrophages deficient in TLR4 (TLR4 KO), MyD88 (MyD88 KO) or TRIF (TRIF KO), treated with LPS (time, above lanes). LPS induces quick expression of 4-1BBL in macrophages in a TLR4-, MyD88-, and TRIF-dependent manner. (B) Semiquantitative PCR of 4-1BBL mRNA in wild-type macrophages left without pretreatment (None) or pretreated for 1 hour with inhibitors of NF-κB (20 μM sulfasalazine), p38 (10 μM SB203580), Jnk (5 μM SP600125) or MEK (10 μM PD98059) and then treated with LPS (time, above lanes). […] (C) Real-time RCR analysis of the stability of LPS-induced 4-1BBL mRNA (1 hour of treatment; LPS) or ectopically expressed 4-1BBL mRNA at 18 hour after infection with recombinant adenovirus encoding 4-1BBL (Adv). Actinomycin D was used to inhibit transcription. Values are the percent remaining relative to the value at 0 hour (set at 100%). LPS-induced alterations in mRNA stability were also involved in LPS-induced 4-1BBL expression. […]
To determine whether the newly synthesized 4-1BBL needs to be on the cell surface in order to regulate the expression of TNF, peritoneal macrophages were preincubated with or without brefeldin A (3 μg/mL) for 1 hour and were then treated with LPS for the indicated times. […] 4-1BBL and TNF mRNA were analyzed by semiquantitative PCR. […]

4-1BBL mRNA = experiment: Semiquantitative PCR of LPS-induced 4-1BBL mRNA in macrophages; settings: for LPS-induced 4-1BBL mRNA / 4-1BBL expression: pretreated 1 hour with 20 μM sulfasalazine, 10 μM SB203580, 5 μM SP600125 or 10 μM PD98059, then LPS, MG-132 data not shown
Experimental: (A) Immunoblot of 4-1BBL in lysates from wild-type macrophages and macrophages deficient in TLR4 (TLR4 KO), MyD88 (MyD88 KO) or TRIF (TRIF KO), treated with LPS (time, above lanes). LPS induces quick expression of 4-1BBL in macrophages in a TLR4-, MyD88-, and TRIF-dependent manner. (B) Semiquantitative PCR of 4-1BBL mRNA in wild-type macrophages left without pretreatment (None) or pretreated for 1 hour with inhibitors of NF-κB (20 μM sulfasalazine), p38 (10 μM SB203580), Jnk (5 μM SP600125) or MEK (10 μM PD98059) and then treated with LPS (time, above lanes). […] (C) Real-time RCR analysis of the stability of LPS-induced 4-1BBL mRNA (1 hour of treatment; LPS) or ectopically expressed 4-1BBL mRNA at 18 hour after infection with recombinant adenovirus encoding 4-1BBL (Adv). Actinomycin D was used to inhibit transcription. Values are the percent remaining relative to the value at 0 hour (set at 100%). LPS-induced alterations in mRNA stability were also involved in LPS-induced 4-1BBL expression. (D) Flow cytometry of 4-1BBL expression by wild-type peritoneal macrophages treated with LPS (time, key): right, surface expression; left, total expression in cells made permeable with 0.1% saponin. LPS-induced 4-1BBL is located on the cell surface. (E) Immunofluorescence microscopy of wild-type peritoneal macrophages preincubated for 1 hour with (+) or without (−) brefeldin A (3 μg/mL), then treated with LPS (time, left margin) and immunostained with anti-4-1BBL. Original magnification, ×100. Brefeldin A blocks protein translocation to the cell surface by inhibiting its translocation from the endoplasmic reticulum to the Golgi apparatus. (F) Semiquantitative PCR of 4-1BBL and TNF mRNA in lysates of cells treated as described in E. Brefeldin A neither affected the LPS-induced increase in 4-1BBL mRNA nor influenced LPS-induced TNF mRNA after 1 hour, but did reduce TNF mRNA at 2, 4 and 6 hours. GAPDH (A,B,F): glyceraldehyde phosphate dehydrogenase (loading control). Data are representative of three independent experiments.
Semiquantitative PCR was performed as described by Kim et al., J. Exp. Med. 197:1441-52 (2003). For real-time PCR, 0.5 μg of total RNA were used to prepare cDNA using oligo(dT)12 as a primer. The SYBR green PCR Master Mix kit (Applied Biosystems) was used in the real-time PCR analysis.
To determine whether the newly synthesized 4-1BBL needs to be on the cell surface in order to regulate the expression of TNF, peritoneal macrophages were preincubated with or without brefeldin A (3 μg/mL) for 1 hour and were then treated with LPS for the indicated times. Immunostaining was performed using anti-4-1BBL antibodies. 4-1BBL and TNF mRNA were analyzed by semiquantitative PCR. GAPDH was used as control. Brefeldin A is a specific inhibitor that blocks protein translocation to the cell surface by inhibiting its translocation from the endoplasmic reticulum to the Golgi apparatus Klausner et al., J. Cell Biol. 116:1071-1080 (1992) (FIG. 7E).

wild-type macrophages = experiment: ELISA of TNF production by macrophages infected with adenovirus expressing 4-1BBL; settings: inhibitor added 6 h after infection (20 μM sulfasalazine, 10 μM SB203580, 5 μM SP600125, 10 μM PD98059), analyzed 24 hour after infection
Experimental: FIG. 10A-I indicate that two sequential TLR4 complexes exist. (A) Immunoassay of wild-type macrophages treated with LPS (time, above lanes); total cell lysates (Lysates; top) or lysates immunoprecipitated with anti-TLR4, anti-MyD88 or anti-4-1BBL were analyzed by immunoblot with anti-4-1BBL, anti-TLR4 and/or anti-MyD88. Dashed outline, isotype antibody (negative control for immunoprecipitation); solid outlines, positive control for immunoblot of 4-1BBL or MyD88. In LPS-treated macrophages, the MyD88-TLR4 complex is responsible for the initial cellular responses, and the 4-1BBL-TLR4 complex is involved in sustaining TNF production. […] (C) 4-1BBL interacts with TRAF6, but not TRAF2. (D) Knockdown of TRAF6 impaired LPS, PolyI:C, and IL-1β induced cytokine production, but has no effect on TNF-induced IL-6 production. […]

C[C@H]1CCC/C=C/[C@@H]2C[C@H](O)C[C@H]2[C@H](O)/C=C/C(=O)O1 [Brefeldin A] was tested. Which “LPS-induced TNF mRNA at 2, 4, and 6 hours” value (TNF mRNA; LPS 2, 4, 6 hours) did it give?
The value was “did reduce”.

What about the “LPS-induced TNF mRNA after 1 hour” value (TNF mRNA; LPS 1 hour) of the same compound?
Its value is “did not influence”.

And the “LPS-induced increase in 4-1BBL mRNA” value (4-1BBL mRNA; preincubated 1 hour with brefeldin A 3 μg/mL, then LPS)?
Its value is “did not affect”.

CC(C)C[C@@H](C=O)NC(=O)[C@H](CC(C)C)NC(=O)[C@H](CC(C)C)NC(=O)OCc1ccccc1 [MG-132] (Cbz-Leu-Leu-Leu-aldehyde) was tested. Which “LPS-induced 4-1BBL mRNA / 4-1BBL expression” value (4-1BBL mRNA) did it give?
Its value is “effectively inhibited”.

Which results are given for COc1cccc(-c2cc(=O)c3ccccc3o2)c1N [PD98059]?
4-1BBL-mediated TNF production (wild-type macrophages): reduced; LPS-induced 4-1BBL mRNA / 4-1BBL expression (4-1BBL mRNA): some inhibitory effects

For C[S+]([O-])c1ccc(-c2nc(-c3ccncc3)c(-c3ccc(F)cc3)[nH]2)cc1 (stereo not drawn) [SB203580], which “4-1BBL-mediated TNF production” value (wild-type macrophages) is on record?
Its value is “reduced”.

And the “LPS-induced 4-1BBL mRNA / 4-1BBL expression” value (4-1BBL mRNA)?
Its value is “some inhibitory effects”.

With O=C(O)c1cc(/N=N/c2ccc(S(=O)(=O)Nc3ccccn3)cc2)ccc1O [sulfasalazine] as the compound, how does the “LPS-induced 4-1BBL mRNA / 4-1BBL expression” value (4-1BBL mRNA) read?
The value was “effectively inhibited”.

Reference: US20100098689A1, “4-1 bb ligand in inflammatory diseases” (The Scripps Research Institute, priority 2006, published 2010)
